Data on 35 compounds can be found in patent publication US8802700B2 (Vertex Pharmaceuticals Incorporated, priority 2010, dated 2014).

Where only a bound is given, the exact number is not on record here.

The target in this assay is T1, ΔF508-CFTR (Homo sapiens, UniProt P13569, DEL508-508).
T1 construct: expressed in transfected cells
T1 sequence (P13569 with tags, fused parts or gaps DEL508-508): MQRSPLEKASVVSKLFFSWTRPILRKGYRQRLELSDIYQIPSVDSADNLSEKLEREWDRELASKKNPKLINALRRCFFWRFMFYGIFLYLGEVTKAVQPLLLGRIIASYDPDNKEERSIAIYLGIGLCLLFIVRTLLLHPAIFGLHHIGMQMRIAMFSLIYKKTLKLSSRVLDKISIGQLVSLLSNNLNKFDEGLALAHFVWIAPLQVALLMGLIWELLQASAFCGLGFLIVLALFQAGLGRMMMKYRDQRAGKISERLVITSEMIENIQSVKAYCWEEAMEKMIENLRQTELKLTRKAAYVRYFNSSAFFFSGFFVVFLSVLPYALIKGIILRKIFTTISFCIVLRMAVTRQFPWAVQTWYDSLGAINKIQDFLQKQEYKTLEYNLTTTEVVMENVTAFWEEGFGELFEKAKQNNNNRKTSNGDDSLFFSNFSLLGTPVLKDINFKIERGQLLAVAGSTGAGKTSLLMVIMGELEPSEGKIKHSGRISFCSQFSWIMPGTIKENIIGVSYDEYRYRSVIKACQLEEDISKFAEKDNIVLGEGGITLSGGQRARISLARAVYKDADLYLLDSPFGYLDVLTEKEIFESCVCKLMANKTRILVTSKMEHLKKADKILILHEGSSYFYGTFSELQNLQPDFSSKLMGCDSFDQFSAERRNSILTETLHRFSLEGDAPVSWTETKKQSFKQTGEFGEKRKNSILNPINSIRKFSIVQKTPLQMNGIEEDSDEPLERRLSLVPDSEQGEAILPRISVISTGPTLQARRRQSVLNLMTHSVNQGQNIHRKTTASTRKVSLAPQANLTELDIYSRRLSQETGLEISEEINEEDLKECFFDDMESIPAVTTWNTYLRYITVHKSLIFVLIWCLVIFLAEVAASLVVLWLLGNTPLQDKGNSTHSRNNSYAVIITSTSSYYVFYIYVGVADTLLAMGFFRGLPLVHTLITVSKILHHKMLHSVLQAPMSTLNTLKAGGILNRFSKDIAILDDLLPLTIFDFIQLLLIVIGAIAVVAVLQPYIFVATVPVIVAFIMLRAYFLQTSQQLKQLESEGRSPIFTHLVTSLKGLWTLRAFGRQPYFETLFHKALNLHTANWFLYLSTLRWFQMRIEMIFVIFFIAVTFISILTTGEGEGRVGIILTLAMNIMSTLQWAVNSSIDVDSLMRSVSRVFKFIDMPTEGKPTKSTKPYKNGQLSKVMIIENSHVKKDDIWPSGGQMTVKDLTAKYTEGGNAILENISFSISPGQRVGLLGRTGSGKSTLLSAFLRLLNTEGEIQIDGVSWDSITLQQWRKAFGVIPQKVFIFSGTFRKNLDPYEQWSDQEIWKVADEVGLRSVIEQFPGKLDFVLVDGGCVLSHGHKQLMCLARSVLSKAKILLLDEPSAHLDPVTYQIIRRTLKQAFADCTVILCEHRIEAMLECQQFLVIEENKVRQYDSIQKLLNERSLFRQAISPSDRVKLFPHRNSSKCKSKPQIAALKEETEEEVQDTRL
The assay can be described thus: Membrane potential optical assay (FRET voltage-sensor dyes, VIPR), identification of potentiator compounds. In kind it is cell-based. Particulars: Table 3; assay not given; read-out: % Activity (% Efficacy, relative efficacy). An excerpt:
The optical membrane potential assay utilized voltage-sensitive FRET sensors described by Gonzalez and Tsien (See Gonzalez, J. E. and R. Y. Tsien (1995) “Voltage sensing by fluorescence resonance energy transfer in single cells” Biophys J 69(4): 1272-80, and Gonzalez, J. E. and R. Y. Tsien (1997) “Improved indicators of cell membrane potential that use fluorescence resonance energy transfer” Chem Biol 4(4): 269-77) in combination with instrumentation for measuring fluorescence changes such as the Voltage/Ion Probe Reader (VIPR) (See […]. Oades, et al. (1999) “Cell-based assays and instrumentation for screening ion-channel targets” Drug Discov Today 4(9): 431-439). These voltage sensitive assays are based on the change in fluorescence resonant energy transfer (FRET) between the membrane-soluble, voltage-sensitive dye, DiSBAC2(3), and a fluorescent phospholipid, CC2-DMPE, which is attached to the outer leaflet of the plasma membrane and acts as a FRET donor. Changes in membrane potential (Vm) cause the negatively charged DiSBAC2(3) to redistribute across the plasma membrane and the amount of energy transfer from CC2-DMPE changes accordingly. The changes in fluorescence emission were monitored using VIPRTM II, which is an integrated liquid handler and fluorescent detector designed to conduct cell-based screens in 96- or 384-well microtiter plates. To identify potentiators of ΔF508-CFTR, a double-addition HTS assay format was developed. During the first addition, a Cl^--free medium with or without test compound was added to each well. […] (in mM) NaCl 160, KCl 4.5, CaCl2 2, MgCl2 1, HEPES 10, pH 7.4 with NaOH. • Chloride-free bath solution: Chloride salts in Bath Solution #1 are substituted with gluconate salts. • CC2-DMPE: Prepared as a 10 mM stock solution in DMSO and stored at -20° C. • DiSBAC2(3): Prepared as a 10 mM stock in DMSO and stored at -20° C. NIH3T3 mouse fibroblasts stably expressing ΔF508-CFTR are used for optical measurements of membrane potential. […] For all optical assays, the cells were seeded at 30,000/well in 384-well matrigel-coated plates and cultured for 2 hrs at 37° C. before culturing at 27° C. for 24 hrs. for the potentiator assay.
As to `Cc1cc2ccc(NC(=O)c3c[nH]c4ccccc4c3=O)cc2[nH]1` [Compound 104, N-(2-methyl-1H-indol-6-yl)-4-oxo-1H-quinoline-3-carboxamide], the Emax was in the range of 25 to 100%.
Turning to `CCOc1ccccc1NC(=O)c1c[nH]c2ccccc2c1=O` [Compound 380, N-(2-ethoxyphenyl)-4-oxo-1H-quinoline-3-carboxamide], the Emax lay in the range of 25 to 100%.
On to `COc1ccc(C(C)(C)C)cc1NC(=O)c1c[nH]c2ccccc2c1=O` [Compound 211, N-(2-methoxy-5-tert-butyl-phenyl)-4-oxo-1H-quinoline-3-carboxamide], for which the Emax lay in the range of 25 to 100%.
With `CCOC(=O)Cc1c[nH]c2cc(NC(=O)c3c[nH]c4ccccc4c3=O)ccc12` [Compound 207, 2-[6-[(4-oxo-1H-quinolin-3-yl)carbonylamino]-1H-indol-3-yl]acetic acid ethyl ester], the Emax lay within 25 to 100%.
The result for `C[C@H]1CCCN1c1ccc(NC(=O)c2c[nH]c3cccc(C(F)(F)F)c3c2=O)c(C(F)(F)F)c1` [Compound 669, (S)-N-(4-(2-methylpyrrolidin-1-yl)-2-(trifluoromethyl)phenyl)-4-oxo-5-(trifluoromethyl)-1,4-dihydroquinoline-3-carboxamide] reads 25 to 100%; that for `C[S+]([O-])c1ccc(-c2ccccc2NC(=O)c2c[nH]c3ccccc3c2=O)cc1` (centres unmarked) [Compound 134, N-[2-(4-methylsulfinylphenyl)phenyl]-4-oxo-1H-quinoline-3-carboxamide], 25 to 100%.
As to `CC(C)(C)c1ccc(NC(=O)c2c[nH]c3ccc(F)cc3c2=O)cc1O` [Compound 490, 6-fluoro-N-(3-hydroxy-4-tert-butyl-phenyl)-4-oxo-1H-quinoline-3-carboxamide], the Emax lay within 25 to 100%.
As to `C=Cc1ccc(NC(=O)c2c[nH]c3ccccc3c2=O)cc1` [Compound 452, 4-oxo-N-(4-vinylphenyl)-1H-quinoline-3-carboxamide], the Emax was 25 to 100%.
Regarding `O=C(Nc1ccc2c(c1)NCC2)c1c[nH]c2ccccc2c1=O` [Compound 258, N-Indolin-6-yl-4-oxo-1H-quinoline-3-carboxamide], the Emax is 25 to 100%.
As to `CC(C)c1ccc(NC(=O)c2c[nH]c3ccc(Cl)cc3c2=O)c(C(F)(F)F)c1` [Compound 657, 6-chloro-N-[4-isopropyl-2-(trifluoromethyl)phenyl]-4-oxo-1H-quinoline-3-carboxamide], the Emax is 25 to 100%.
To `O=C(Nc1cc(O)c(C2CCCCC2)cc1C(F)(F)F)c1c[nH]c2ccccc2c1=O` [Compound 619, N-[4-cyclohexyl-5-hydroxy-2-(trifluoromethyl)phenyl]-4-oxo-1H-quinoline-3-carboxamide] belongs over 100%.
The result for `CC1=NN(c2cccc(NC(=O)c3c[nH]c4ccccc4c3=O)c2)C(=O)C1` [Compound 212, N-[3-(3-methyl-5-oxo-1,4-dihydropyrazol-1-yl)phenyl]-4-oxo-1H-quinoline-3-carboxamide] reads under 25%; that for `CCc1cc(C(C)(C)C)c(O)cc1NC(=O)c1c[nH]c2ccccc2c1=O` [Compound 659, N-(2-ethyl-5-hydroxy-4-tert-butyl-phenyl)-4-oxo-1H-quinoline-3-carboxamide], 25 to 100%; that for `O=C(Nc1cc(O)c(Cl)cc1F)c1c[nH]c2ccccc2c1=O` [Compound 695, N-(4-chloro-2-fluoro-5-hydroxy-phenyl)-4-oxo-1H-quinoline-3-carboxamide], 25 to 100%.
As for `O=C(Nc1ccc2c(c1)NCCCC2)c1c[nH]c2ccccc2c1=O` [Compound 10, 1,4-dihydro-N-(2,3,4,5-tetrahydro-1H-benzo[b]azepin-8-yl)-4-oxoquinoline-3-carboxamide], the Emax was in the range of 25 to 100%.
As to `Cc1cccc2c(=O)c(C(=O)Nc3cc(O)c(C(C)(C)C)cc3F)c[nH]c12` [Compound 625, N-(2-fluoro-5-hydroxy-4-tert-butyl-phenyl)-8-methyl-4-oxo-1H-quinoline-3-carboxamide], the Emax is under 25%.
With `NC(=O)c1ccccc1NC(=O)c1c[nH]c2ccccc2c1=O` [Compound 331, N-(2-carbamoylphenyl)-4-oxo-1H-quinoline-3-carboxamide], the Emax was under 25%.
To `COc1nc2ccccc2c(OC)c1C(=O)Nc1ccccc1C(C)(C)C` [Compound 296, 2,4-dimethoxy-N-(2-tert-butylphenyl)-quinoline-3-carboxamide] belongs 25 to 100%; to `CCc1ccc(N(C)C)cc1NC(=O)c1c[nH]c2ccccc2c1=O` [Compound 409, N-(5-dimethylamino-2-ethyl-phenyl)-4-oxo-1H-quinoline-3-carboxamide], 25 to 100%.
With `N#Cc1c[nH]c2cc(NC(=O)c3c[nH]c4ccccc4c3=O)ccc12` [Compound 339, N-(3-cyano-1H-indol-6-yl)-4-oxo-1H-quinoline-3-carboxamide], the Emax fell in the range of 25 to 100%.
The result for `Cc1cccnc1NC(=O)c1c[nH]c2ccccc2c1=O` [Compound 192, N-(3-methyl-2-pyridyl)-4-oxo-1H-quinoline-3-carboxamide] reads under 25%.
The result for `CCC1(c2ccc(NC(=O)c3c[nH]c4ccccc4c3=O)cc2)CCC(=O)NC1=O` (centres unmarked) [Compound 57, N-[4-(3-ethyl-2,6-dioxo-3-piperidyl)phenyl]-4-oxo-1H-quinoline-3-carboxamide] reads over 100%.
On to `O=C(Nc1ccccc1SC(F)(F)F)c1c[nH]c2ccccc2c1=O` [Compound 371, 4-oxo-N-[2-(trifluoromethylsulfanyl)phenyl]-1H-quinoline-3-carboxamide], for which the Emax is 25 to 100%.
The result for `Cc1cccc2[nH]cc(C(=O)Nc3ccc(N4CC[C@@H](F)C4)cc3C(F)(F)F)c(=O)c12` [Compound 541, (R)-N-(4-(3-fluoropyrrolidin-1-yl)-2-(trifluoromethyl)phenyl)-5-methyl-4-oxo-1,4-dihydroquinoline-3-carboxamide] reads 25 to 100%; that for `O=C(Nc1ccccc1N1CCOCC1)c1c[nH]c2ccccc2c1=O` [Compound 4, N-(2-morpholinophenyl)-4-oxo-1H-quinoline-3-carboxamide], 25 to 100%.
For the compound `O=C(Nc1cc(C(F)(F)F)cc(C(F)(F)F)c1)c1c[nH]c2ccccc2c1=O` [Compound 154, N-[3,5-bis(trifluoromethyl)phenyl]-4-oxo-1H-quinoline-3-carboxamide], the Emax was under 25%.
On to `CCOc1ccc2[nH]cc(C(=O)Nc3cc(O)c(C(C)(C)C)cc3C(C)(C)C)c(=O)c2c1` [Compound 524, 6-ethoxy-N-(5-hydroxy-2,4-ditert-butyl-phenyl)-4-oxo-1H-quinoline-3-carboxamide], for which the Emax lay in the range of 25 to 100%.
In the case of `CC(C)(C)c1ccc(O)cc1NC(=O)c1c[nH]c2ccc(F)cc2c1=O` [Compound 665, 6-fluoro-N-(5-hydroxy-2-tert-butyl-phenyl)-4-oxo-1H-quinoline-3-carboxamide], the Emax lay within 25 to 100%.
The result for `CC(=O)c1cccc(NC(=O)c2c[nH]c3ccccc3c2=O)c1` [Compound 328, N-(3-acetylphenyl)-4-oxo-1H-quinoline-3-carboxamide] reads under 25%; that for `O=C(Nc1ccc2[nH]c(=O)oc2c1)c1c[nH]c2ccccc2c1=O` [Compound 152, 4-oxo-N-(2-oxo-3H-benzooxazol-6-yl)-1H-quinoline-3-carboxamide], under 25%.
For `CC1(c2cc(F)c(NC(=O)c3c[nH]c4cccc(C(F)(F)F)c4c3=O)cc2O)CCCCC1` [Compound 706, N-[2-fluoro-5-hydroxy-4-(1-methylcyclohexyl)-phenyl]-4-oxo-5-(trifluoromethyl)-1H-quinoline-3-carboxamide], the Emax is over 100%.
The result for `CC(C)(C)c1cc(F)c(NC(=O)c2c[nH]c3cccc(O)c3c2=O)cc1O` [Compound 407, N-(2-fluoro-5-hydroxy-4-tert-butyl-phenyl)-5-hydroxy-4-oxo-1H-quinoline-3-carboxamide] reads 25 to 100%; that for `O=C(Nc1cc(N2CCCCC2)cc(C(F)(F)F)c1)c1c[nH]c2ccccc2c1=O` [Compound 488, 4-oxo-N-[3-(1-piperidyl)-5-(trifluoromethyl)phenyl]-1H-quinoline-3-carboxamide], 25 to 100%.
To `O=C(Nc1ccc(C(F)(F)F)c(O)c1)c1c[nH]c2ccccc2c1=O` [Compound 506, N-[3-hydroxy-4-(trifluoromethyl)phenyl]-4-oxo-1H-quinoline-3-carboxamide] belongs 25 to 100%.
To `O=C(Nc1ccccc1-c1cccc(OC(F)(F)F)c1)c1c[nH]c2ccccc2c1=O` [Compound 253, 4-oxo-N-[2-[3-(trifluoromethoxy)phenyl]phenyl]-1H-quinoline-3-carboxamide] belongs 25 to 100%.
